Laboratory results published in patent US8318186B2, “Use of at least a fatty ester for preparing a composition designed to inhibit 5-α-reductase activity, in pharmacology, in particular dermatology, in cosmetics and as food additive” (Laboratoires Expanscience, priority 2000, dated 2012).
Where “and” joins values, the source holds several entries; their conditions need not be identical. Equal values may be shown once. Marks after values point to notes of the source that are not given here.

These molecules were tested on 5α-reductase (assay: Fatty acid esters on 5α-reductase activity, conversion of testosterone to 5α-dihydrotestosterone in normal human dermal fibroblast cultures (Example 4)). Details: 1 μg/ml.
Type: cell-based
Set-up: key to group by 5α-reductase inhibitory activity: group A with the highest inhibitory activity; group B with an intermediate inhibitory activity
Method: The fibroblast culture medium (FCM) consisted of MEM/M199 (3:1, v/v) supplemented with penicillin (50 IU/ml), streptomycin (50 μg/ml), sodium bicarbonate (0.2%, w/v) and FCS (10%, v/v).
The assay system consisted of normal human dermal fibroblasts cultured as a monolayer. The fibroblasts were isolated from a residue from abdominal plastic surgery performed on a person (subject BIOPREDIC No. I0013). The cells were used at the fifth passage; they were cultured until the monolayers were confluent in FCM medium at 37° C. in a humid atmosphere containing 5% CO2.
The fibroblast incubation medium (FIM) consisted of FCM supplemented with tritiated testosterone (1.6×10^−7 M, that is 6.32 μCi/ml) and nonradiolabeled testosterone (3.84×10^−6 M)
The test products and finasteride were taken up in DMSO before being diluted in the incubation medium. […]
The fibroblast cultures were preincubated in the presence of the test products or of the reference product for 2 hours before adding the substrate, testosterone. For this step, the test products and the reference product were prepared in the FCM medium.
After preincubation, the fibroblast cultures were incubated in the presence of the test products or of the reference product prepared in the FIM medium for 22 hours at 37° C. in a humid atmosphere containing 5% CO2. Control cultures were incubated in the FIM medium in the absence of test products and of reference product. […]
Each experimental condition was tested in triplicate.
After the incubation period, the cells were subjected to the action of ultrasound in the FIM medium. The cellular lysates thus obtained were extracted with dichloromethane. After evaporation, the dry residues were taken up in methanol and were deposited on 60F254 silica plates (MERCK, reference 5554).
The migration solvent was a mixture of dichloromethane and ether (7:3, v/v) At the end of the migration, the silica plates were read using a BERTHOLD radioactivity scanner.
The metabolizing of testosterone to 5α-dihydro-testosterone under the various experimental conditions was calculated: the results (areas of the 5α-dihydrotestosterone peaks counted by the BERTHOLD scanner) were expressed in pmol of 5α-dihydro-testosterone formed per culture well. They were also expressed as a percentage of the 5α-reductase activity present in the “DMSO control” group.
The groups of data (control group and treated groups) were treated by a one-way analysis of variance (ANOVA 1, p<0.05), followed by a DUNNETT's test (p<0.05). The effect of the test products and of the reference product was compared with the “DMSO control” group. The effects of the test products were compared to each other by a two-way analysis of variance (ANOVA 2, p<0.05, factor 1=concentration and factor 2=treatment).
The same materials and methods are used as in example 3 above.
It was proposed to evaluate the effect of fatty acid esters on the 5α-reductase activity. An in vitro model of normal human dermal fibroblast cultures was selected. The products tested were chosen from the group of fatty acid esters varying in the length and the functionality of the fatty chain, and the nature of the alkoxy group. These esters are the following: methyl oleate, methyl linoleate, methyl stearate, methyl laurate, methyl undecylenate, butyl oleate, oleyl oleate and methyl ricinoleate.
In the case of `CCCCCCCCCCCCCCCCCC(=O)OC` [Methyl stearate, methyl stearate], the “5α-reductase activity as percentage of the “DMSO 0.1% (v/v)” group” value is reported as 59 percentage of the “DMSO 0.1% (v/v)” group.
In the case of `CCCCCC[C@@H](O)C/C=C\CCCCCCCC(=O)OC` [Methyl ricinoleate, methyl ricinoleate], the “5α-reductase activity as percentage of the “DMSO 0.1% (v/v)” group” value is reported as 63 percentage of the “DMSO 0.1% (v/v)” group.
`CCCCC/C=C\C/C=C\CCCCCCCC(=O)OC` [Methyl linoleate, methyl linoleate] was tested, and the “5α-reductase activity as percentage of the “DMSO 0.1% (v/v)” group” value was 58 percentage of the “DMSO 0.1% (v/v)” group.

Same assay, conditions: 1 μg/ml, Example 4, p<0.05
`CCCCCCCCCCCCCCCCCC(=O)OC` [Methyl stearate, methyl stearate] was tested, and the “inhibition of the 5α-reductase activity” value was 41%.
With `CCCCCC[C@@H](O)C/C=C\CCCCCCCC(=O)OC` [Methyl ricinoleate, methyl ricinoleate] the “inhibition of the 5α-reductase activity” value was 37%.
For `CCCCC/C=C\C/C=C\CCCCCCCC(=O)OC` [Methyl linoleate, methyl linoleate], the “inhibition of the 5α-reductase activity” value was 42%.

Same assay, conditions: 1 μg/ml, after 24 of incubation, DMSO 0.1% (v/v), mean
`CCCCCCCCCCCCCCCCCC(=O)OC` [Methyl stearate, methyl stearate] was tested, and the “5α-DHT formed per culture well, mean” value was 6.69* +/− pmol of 5α-DHT formed/culture well.
`CCCCCC[C@@H](O)C/C=C\CCCCCCCC(=O)OC` [Methyl ricinoleate, methyl ricinoleate] was tested, and the “5α-DHT formed per culture well, mean” value was 7.19* +/− pmol of 5α-DHT formed/culture well.
For `CCCCC/C=C\C/C=C\CCCCCCCC(=O)OC` [Methyl linoleate, methyl linoleate], the “5α-DHT formed per culture well, mean” value was 6.60* +/− pmol of 5α-DHT formed/culture well.

Same assay, conditions: 1 μg/ml, after 24 of incubation, DMSO 0.1% (v/v), single replicate
With `CCCCCCCCCCCCCCCCCC(=O)OC` [Methyl stearate, methyl stearate] the “5α-DHT formed per culture well, single well” value was 6.92 pmol of 5α-DHT formed/culture well and 6.08 pmol of 5α-DHT formed/culture well and 7.08 pmol of 5α-DHT formed/culture well.
With `CCCCCC[C@@H](O)C/C=C\CCCCCCCC(=O)OC` [Methyl ricinoleate, methyl ricinoleate] the “5α-DHT formed per culture well, single well” value was 6.52 pmol of 5α-DHT formed/culture well and 8.36 pmol of 5α-DHT formed/culture well and 6.68 pmol of 5α-DHT formed/culture well.
With `CCCCC/C=C\C/C=C\CCCCCCCC(=O)OC` [Methyl linoleate, methyl linoleate] the “5α-DHT formed per culture well, single well” value was 7.04 pmol of 5α-DHT formed/culture well and 6.40 pmol of 5α-DHT formed/culture well and 6.36 pmol of 5α-DHT formed/culture well.

Same assay, conditions: 10 μg/ml
In the case of `CCCCCCCCCCCCCCCCCC(=O)OC` [Methyl stearate, methyl stearate], the “5α-reductase activity as percentage of the “DMSO 0.1% (v/v)” group” value is reported as 65 percentage of the “DMSO 0.1% (v/v)” group.
For `CCCCCC[C@@H](O)C/C=C\CCCCCCCC(=O)OC` [Methyl ricinoleate, methyl ricinoleate], the “5α-reductase activity as percentage of the “DMSO 0.1% (v/v)” group” value was 62 percentage of the “DMSO 0.1% (v/v)” group.
In the case of `CCCCC/C=C\C/C=C\CCCCCCCC(=O)OC` [Methyl linoleate, methyl linoleate], the “5α-reductase activity as percentage of the “DMSO 0.1% (v/v)” group” value is reported as 60 percentage of the “DMSO 0.1% (v/v)” group.

Same assay, conditions: 10 μg/ml, Example 4, p<0.05
With `CCCCCCCCCCCCCCCCCC(=O)OC` [Methyl stearate, methyl stearate] the “inhibition of the 5α-reductase activity” value was 35%.
For `CCCCCC[C@@H](O)C/C=C\CCCCCCCC(=O)OC` [Methyl ricinoleate, methyl ricinoleate], the “inhibition of the 5α-reductase activity” value was 38%.
`CCCCC/C=C\C/C=C\CCCCCCCC(=O)OC` [Methyl linoleate, methyl linoleate] was tested, and the “inhibition of the 5α-reductase activity” value was 40%.

Same assay, conditions: 10 μg/ml, after 24 of incubation, DMSO 0.1% (v/v), mean
For `CCCCCCCCCCCCCCCCCC(=O)OC` [Methyl stearate, methyl stearate], the “5α-DHT formed per culture well, mean” value was 7.43* +/− pmol of 5α-DHT formed/culture well.
In the case of `CCCCCC[C@@H](O)C/C=C\CCCCCCCC(=O)OC` [Methyl ricinoleate, methyl ricinoleate], the “5α-DHT formed per culture well, mean” value is reported as 7.04* +/− pmol of 5α-DHT formed/culture well.
`CCCCC/C=C\C/C=C\CCCCCCCC(=O)OC` [Methyl linoleate, methyl linoleate] was tested, and the “5α-DHT formed per culture well, mean” value was 6.87* +/− pmol of 5α-DHT formed/culture well.

Same assay, conditions: 10 μg/ml, after 24 of incubation, DMSO 0.1% (v/v), single replicate
For `CCCCCCCCCCCCCCCCCC(=O)OC` [Methyl stearate, methyl stearate], the “5α-DHT formed per culture well, single well” value was 8.80 pmol of 5α-DHT formed/culture well and 6.72 pmol of 5α-DHT formed/culture well and 6.76 pmol of 5α-DHT formed/culture well.
In the case of `CCCCCC[C@@H](O)C/C=C\CCCCCCCC(=O)OC` [Methyl ricinoleate, methyl ricinoleate], the “5α-DHT formed per culture well, single well” value is reported as 7.84 pmol of 5α-DHT formed/culture well and 7.40 pmol of 5α-DHT formed/culture well and 5.88 pmol of 5α-DHT formed/culture well.
`CCCCC/C=C\C/C=C\CCCCCCCC(=O)OC` [Methyl linoleate, methyl linoleate] was tested, and the “5α-DHT formed per culture well, single well” value was 6.00 pmol of 5α-DHT formed/culture well and 6.60 pmol of 5α-DHT formed/culture well and 8.00 pmol of 5α-DHT formed/culture well.

Same assay, conditions: 100 μg/ml
In the case of `CCCCCCCCCCCCCCCCCC(=O)OC` [Methyl stearate, methyl stearate], the “5α-reductase activity as percentage of the “DMSO 0.1% (v/v)” group” value is reported as 57 percentage of the “DMSO 0.1% (v/v)” group.
For `CCCCCC[C@@H](O)C/C=C\CCCCCCCC(=O)OC` [Methyl ricinoleate, methyl ricinoleate], the “5α-reductase activity as percentage of the “DMSO 0.1% (v/v)” group” value was 38 percentage of the “DMSO 0.1% (v/v)” group.
With `CCCCC/C=C\C/C=C\CCCCCCCC(=O)OC` [Methyl linoleate, methyl linoleate] the “5α-reductase activity as percentage of the “DMSO 0.1% (v/v)” group” value was 71 percentage of the “DMSO 0.1% (v/v)” group.

Same assay, conditions: 100 μg/ml, Example 4, p<0.05
For `CCCCCCCCCCCCCCCCCC(=O)OC` [Methyl stearate, methyl stearate], the “inhibition of the 5α-reductase activity” value was 43%.
`CCCCCC[C@@H](O)C/C=C\CCCCCCCC(=O)OC` [Methyl ricinoleate, methyl ricinoleate] was tested, and the “inhibition of the 5α-reductase activity” value was 62%.
`CCCCC/C=C\C/C=C\CCCCCCCC(=O)OC` [Methyl linoleate, methyl linoleate] was tested, and the “inhibition of the 5α-reductase activity” value was 29%.

Same assay, conditions: 100 μg/ml, after 24 of incubation, DMSO 0.1% (v/v), mean
`CCCCCCCCCCCCCCCCCC(=O)OC` [Methyl stearate, methyl stearate] was tested, and the “5α-DHT formed per culture well, mean” value was 6.52* +/− pmol of 5α-DHT formed/culture well.
For `CCCCCC[C@@H](O)C/C=C\CCCCCCCC(=O)OC` [Methyl ricinoleate, methyl ricinoleate], the “5α-DHT formed per culture well, mean” value was 4.33* +/− pmol of 5α-DHT formed/culture well.
For `CCCCC/C=C\C/C=C\CCCCCCCC(=O)OC` [Methyl linoleate, methyl linoleate], the “5α-DHT formed per culture well, mean” value was 8.05* +/− pmol of 5α-DHT formed/culture well.

Same assay, conditions: 100 μg/ml, after 24 of incubation, DMSO 0.1% (v/v), single replicate
`CCCCCCCCCCCCCCCCCC(=O)OC` [Methyl stearate, methyl stearate] was tested, and the “5α-DHT formed per culture well, single well” value was 6.88 pmol of 5α-DHT formed/culture well and 5.92 pmol of 5α-DHT formed/culture well and 6.76 pmol of 5α-DHT formed/culture well.
`CCCCCC[C@@H](O)C/C=C\CCCCCCCC(=O)OC` [Methyl ricinoleate, methyl ricinoleate] was tested, and the “5α-DHT formed per culture well, single well” value was 3.68 pmol of 5α-DHT formed/culture well and 4.52 pmol of 5α-DHT formed/culture well and 4.80 pmol of 5α-DHT formed/culture well.
With `CCCCC/C=C\C/C=C\CCCCCCCC(=O)OC` [Methyl linoleate, methyl linoleate] the “5α-DHT formed per culture well, single well” value was 8.56 pmol of 5α-DHT formed/culture well and 8.04 pmol of 5α-DHT formed/culture well and 7.56 pmol of 5α-DHT formed/culture well.

Same assay, conditions: tested at 1, 10 and 100 μg/ml
In the case of `CCCCCCCCCCCCCCCCCC(=O)OC` [Methyl stearate, methyl stearate], the “group by 5α-reductase inhibitory activity” value is reported as “B”.
With `CCCCCC[C@@H](O)C/C=C\CCCCCCCC(=O)OC` [Methyl ricinoleate, methyl ricinoleate] the “group by 5α-reductase inhibitory activity” value was “A”.
`CCCCC/C=C\C/C=C\CCCCCCCC(=O)OC` [Methyl linoleate, methyl linoleate] was tested, and the “group by 5α-reductase inhibitory activity” value was “B”.
